pIC50: −log10 of the molar value.
test system: Mus musculus; assay: Effective dose required for pancaspase inhibition in a-Fas liver upon i.p. administration; range = 0.06-0.12; conditions: ip

Row | Compound | ED50
1 | C[C@H](NC(=O)C(=O)Nc1ccccc1C(C)(C)C)C(=O)N[C@@H](CC(=O)O)C(=O)COc1c(F)c(F)cc(F)c1F [EMRICASAN] | 0.08 mg/kg

target: Caspase-8 (Homo sapiens) (UniProt Q14790); assay: Inhibitory activity against Caspase-8; conditions: not given
Sequence (Q14790 217-374 limits assumed): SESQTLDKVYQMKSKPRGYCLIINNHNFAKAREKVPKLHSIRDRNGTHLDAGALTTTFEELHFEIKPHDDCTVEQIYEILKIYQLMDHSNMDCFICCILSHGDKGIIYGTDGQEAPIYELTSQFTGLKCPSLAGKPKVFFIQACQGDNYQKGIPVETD
Sequence (Q14790 385-479 limits assumed): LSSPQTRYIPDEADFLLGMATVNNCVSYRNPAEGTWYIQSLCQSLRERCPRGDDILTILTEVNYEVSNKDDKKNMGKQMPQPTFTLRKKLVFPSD

Row | Compound | k3/Ki
2 | C[C@H](NC(=O)C(=O)Nc1ccccc1Oc1ccccc1)C(=O)N[C@@H](CC(=O)O)C(=O)COc1c(F)c(F)cc(F)c1F | 154000 M⁻¹ s⁻¹
3 | Cc1c(C(=O)N[C@H](C(=O)NC(CC(=O)O)C(=O)CF)C(C)C)n(C)c2ccccc12 (stereo partly drawn) | 34400 M⁻¹ s⁻¹
4 | C[C@H](NC(=O)C(=O)Nc1ccccc1C(C)(C)C)C(=O)N[C@@H](CC(=O)O)C(=O)COc1c(F)c(F)cc(F)c1F [EMRICASAN] | 2.94e+06 M⁻¹ s⁻¹

Now from value to molecule:

Row | k3/Ki | Compound
5 | 365000 M⁻¹ s⁻¹ | C[C@H](NC(=O)C(=O)Nc1cc(C(C)(C)C)ccc1C(C)(C)C)C(=O)N[C@@H](CC(=O)O)C(=O)COc1c(F)c(F)cc(F)c1F
6 | 460000 M⁻¹ s⁻¹ | C[C@H](NC(=O)C(=O)Nc1cccc2ccccc12)C(=O)N[C@@H](CC(=O)O)C(=O)COc1c(F)c(F)cc(F)c1F
7 | 542000 M⁻¹ s⁻¹ | C[C@H](NC(=O)C(=O)Nc1ccccc1Br)C(=O)N[C@@H](CC(=O)O)C(=O)COc1c(F)c(F)cc(F)c1F

target: T1, Caspase-1 (Mus musculus) (UniProt P29452); assay: Inhibitory activity against murine Caspase-1; conditions: not given
T1 sequence (whole entry): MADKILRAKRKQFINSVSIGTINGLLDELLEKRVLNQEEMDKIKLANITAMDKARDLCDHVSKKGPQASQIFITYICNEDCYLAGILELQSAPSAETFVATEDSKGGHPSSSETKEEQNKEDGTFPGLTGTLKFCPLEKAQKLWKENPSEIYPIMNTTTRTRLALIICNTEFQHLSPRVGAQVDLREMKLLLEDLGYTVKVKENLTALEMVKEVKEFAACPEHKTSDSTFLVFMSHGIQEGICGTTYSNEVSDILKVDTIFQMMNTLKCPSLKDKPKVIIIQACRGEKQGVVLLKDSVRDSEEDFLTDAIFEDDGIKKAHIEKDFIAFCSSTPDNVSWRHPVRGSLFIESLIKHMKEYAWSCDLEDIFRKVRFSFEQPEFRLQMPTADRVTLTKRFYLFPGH

Row | Compound | k3/Ki
8 | C[C@H](NC(=O)C(=O)Nc1ccccc1Oc1ccccc1)C(=O)N[C@@H](CC(=O)O)C(=O)COc1c(F)c(F)cc(F)c1F | 960000 M⁻¹ s⁻¹
9 | Cc1c(C(=O)N[C@H](C(=O)NC(CC(=O)O)C(=O)CF)C(C)C)n(C)c2ccccc12 (stereo partly drawn) | 10100 M⁻¹ s⁻¹
10 | C[C@H](NC(=O)C(=O)Nc1ccccc1C(C)(C)C)C(=O)N[C@@H](CC(=O)O)C(=O)COc1c(F)c(F)cc(F)c1F [EMRICASAN] | 689000 M⁻¹ s⁻¹

More lines, now with the values ahead:

Row | k3/Ki | Compound
11 | 1.63e+07 M⁻¹ s⁻¹ | C[C@H](NC(=O)C(=O)Nc1cc(C(C)(C)C)ccc1C(C)(C)C)C(=O)N[C@@H](CC(=O)O)C(=O)COc1c(F)c(F)cc(F)c1F
12 | 1.7e+06 M⁻¹ s⁻¹ | C[C@H](NC(=O)C(=O)Nc1cccc2ccccc12)C(=O)N[C@@H](CC(=O)O)C(=O)COc1c(F)c(F)cc(F)c1F
13 | 1.34e+06 M⁻¹ s⁻¹ | C[C@H](NC(=O)C(=O)Nc1ccccc1Br)C(=O)N[C@@H](CC(=O)O)C(=O)COc1c(F)c(F)cc(F)c1F

test system: THP-1; assay: Inhibitory concentration against THP-1 cells; format: functional, cell-based; conditions: Homo sapiens

Row | Compound | pIC50
14 | C[C@H](NC(=O)C(=O)Nc1ccccc1Oc1ccccc1)C(=O)N[C@@H](CC(=O)O)C(=O)COc1c(F)c(F)cc(F)c1F | 6.10
15 | Cc1c(C(=O)N[C@H](C(=O)NC(CC(=O)O)C(=O)CF)C(C)C)n(C)c2ccccc12 (stereo partly drawn) | 5.00
16 | C[C@H](NC(=O)C(=O)Nc1ccccc1C(C)(C)C)C(=O)N[C@@H](CC(=O)O)C(=O)COc1c(F)c(F)cc(F)c1F [EMRICASAN] | 6.57

More lines, in order of rising pIC50, values ahead:

Row | pIC50 | Compound
17 | 5.74 | C[C@H](NC(=O)C(=O)Nc1cc(C(C)(C)C)ccc1C(C)(C)C)C(=O)N[C@@H](CC(=O)O)C(=O)COc1c(F)c(F)cc(F)c1F
18 | 7.22 | C[C@H](NC(=O)C(=O)Nc1cccc2ccccc12)C(=O)N[C@@H](CC(=O)O)C(=O)COc1c(F)c(F)cc(F)c1F
19 | 7.30 | C[C@H](NC(=O)C(=O)Nc1ccccc1Br)C(=O)N[C@@H](CC(=O)O)C(=O)COc1c(F)c(F)cc(F)c1F

target: T2, Caspase-3 (Homo sapiens) (UniProt P42574); assay: Inhibitory activity against Caspase-3; conditions: not given
T2 sequence (whole entry): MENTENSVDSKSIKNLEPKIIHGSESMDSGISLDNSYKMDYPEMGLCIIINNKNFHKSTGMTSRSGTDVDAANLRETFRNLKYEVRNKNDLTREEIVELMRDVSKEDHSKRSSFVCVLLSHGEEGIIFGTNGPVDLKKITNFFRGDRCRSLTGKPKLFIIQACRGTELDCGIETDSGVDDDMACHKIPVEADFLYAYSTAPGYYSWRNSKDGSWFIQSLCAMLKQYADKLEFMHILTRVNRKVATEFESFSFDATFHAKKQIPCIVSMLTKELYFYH

Row | Compound | k3/Ki
20 | C[C@H](NC(=O)C(=O)Nc1ccccc1Oc1ccccc1)C(=O)N[C@@H](CC(=O)O)C(=O)COc1c(F)c(F)cc(F)c1F | 51000 M⁻¹ s⁻¹
21 | Cc1c(C(=O)N[C@H](C(=O)NC(CC(=O)O)C(=O)CF)C(C)C)n(C)c2ccccc12 (stereo partly drawn) | 19000 M⁻¹ s⁻¹
22 | C[C@H](NC(=O)C(=O)Nc1ccccc1C(C)(C)C)C(=O)N[C@@H](CC(=O)O)C(=O)COc1c(F)c(F)cc(F)c1F [EMRICASAN] | 75700 M⁻¹ s⁻¹

More lines, now with the values ahead:

Row | k3/Ki | Compound
23 | 38200 M⁻¹ s⁻¹ | C[C@H](NC(=O)C(=O)Nc1cc(C(C)(C)C)ccc1C(C)(C)C)C(=O)N[C@@H](CC(=O)O)C(=O)COc1c(F)c(F)cc(F)c1F
24 | 57000 M⁻¹ s⁻¹ | C[C@H](NC(=O)C(=O)Nc1cccc2ccccc12)C(=O)N[C@@H](CC(=O)O)C(=O)COc1c(F)c(F)cc(F)c1F
25 | 186000 M⁻¹ s⁻¹ | C[C@H](NC(=O)C(=O)Nc1ccccc1Br)C(=O)N[C@@H](CC(=O)O)C(=O)COc1c(F)c(F)cc(F)c1F

target: T3, Caspase-6 (Homo sapiens) (UniProt P55212); assay: Inhibitory activity against Caspase-6; conditions: not given
T3 sequence (whole entry): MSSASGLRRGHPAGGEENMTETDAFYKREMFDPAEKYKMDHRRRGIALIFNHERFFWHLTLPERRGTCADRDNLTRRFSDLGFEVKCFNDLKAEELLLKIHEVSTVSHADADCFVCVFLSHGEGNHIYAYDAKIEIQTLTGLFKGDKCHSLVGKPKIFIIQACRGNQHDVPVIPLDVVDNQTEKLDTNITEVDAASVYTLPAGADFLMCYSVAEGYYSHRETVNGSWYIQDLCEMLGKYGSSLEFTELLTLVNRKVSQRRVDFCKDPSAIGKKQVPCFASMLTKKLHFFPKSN

Row | Compound | k3/Ki
26 | C[C@H](NC(=O)C(=O)Nc1ccccc1Oc1ccccc1)C(=O)N[C@@H](CC(=O)O)C(=O)COc1c(F)c(F)cc(F)c1F | 5900 M⁻¹ s⁻¹
27 | Cc1c(C(=O)N[C@H](C(=O)NC(CC(=O)O)C(=O)CF)C(C)C)n(C)c2ccccc12 (stereo partly drawn) | 98000 M⁻¹ s⁻¹
28 | C[C@H](NC(=O)C(=O)Nc1ccccc1C(C)(C)C)C(=O)N[C@@H](CC(=O)O)C(=O)COc1c(F)c(F)cc(F)c1F [EMRICASAN] | 58700 M⁻¹ s⁻¹

Second part, the molecule after the results:

Row | k3/Ki | Compound
29 | 15400 M⁻¹ s⁻¹ | C[C@H](NC(=O)C(=O)Nc1cc(C(C)(C)C)ccc1C(C)(C)C)C(=O)N[C@@H](CC(=O)O)C(=O)COc1c(F)c(F)cc(F)c1F
30 | 18500 M⁻¹ s⁻¹ | C[C@H](NC(=O)C(=O)Nc1cccc2ccccc12)C(=O)N[C@@H](CC(=O)O)C(=O)COc1c(F)c(F)cc(F)c1F
31 | 25200 M⁻¹ s⁻¹ | C[C@H](NC(=O)C(=O)Nc1ccccc1Br)C(=O)N[C@@H](CC(=O)O)C(=O)COc1c(F)c(F)cc(F)c1F

test system: Jurkat; assay: Inhibitory concentration against JFas cells; format: functional, cell-based; conditions: Homo sapiens

Row | Compound | pIC50
32 | C[C@H](NC(=O)C(=O)Nc1ccccc1Oc1ccccc1)C(=O)N[C@@H](CC(=O)O)C(=O)COc1c(F)c(F)cc(F)c1F | 6.28
33 | Cc1c(C(=O)N[C@H](C(=O)NC(CC(=O)O)C(=O)CF)C(C)C)n(C)c2ccccc12 (stereo partly drawn) | 5.89
34 | C[C@H](NC(=O)C(=O)Nc1ccccc1C(C)(C)C)C(=O)N[C@@H](CC(=O)O)C(=O)COc1c(F)c(F)cc(F)c1F [EMRICASAN] | 7.60

Further lines, results first:

Row | pIC50 | Compound
35 | 7.21 | C[C@H](NC(=O)C(=O)Nc1cc(C(C)(C)C)ccc1C(C)(C)C)C(=O)N[C@@H](CC(=O)O)C(=O)COc1c(F)c(F)cc(F)c1F
36 | 7.07 | C[C@H](NC(=O)C(=O)Nc1cccc2ccccc12)C(=O)N[C@@H](CC(=O)O)C(=O)COc1c(F)c(F)cc(F)c1F
37 | 7.12 | C[C@H](NC(=O)C(=O)Nc1ccccc1Br)C(=O)N[C@@H](CC(=O)O)C(=O)COc1c(F)c(F)cc(F)c1F

test system: Mus musculus; assay: Effective dose required for pancaspase inhibition in a-Fas liver upon i.p. administration; range = 0.02-0.11; conditions: ip

Row | Compound | ED50
38 | C[C@H](NC(=O)C(=O)Nc1cc(C(C)(C)C)ccc1C(C)(C)C)C(=O)N[C@@H](CC(=O)O)C(=O)COc1c(F)c(F)cc(F)c1F | 0.05 mg/kg

From ChEMBL document CHEMBL1141033, “First-in-class pan caspase inhibitor developed for the treatment of liver disease” (J Med Chem, 2005)
